The source of these data is patent publication EP0639197B1, “EXCITATORY AMINO ACID ANTAGONISTS” (GUILFORD PHARMACEUTICALS INC., priority 1990, dated 1992).

Each structure is given as a SMILES string.

For data set [1], the target named is NMDA receptors. The data set is described as follows: Inhibition of specific binding of [3H]CGS-19755 to rat forebrain membranes. Conditions: for IC50: [3H]CGS-19755 4.62 x 10^-9 M, rat forebrain membranes, 20min, 23 C, enriched mixtures, less than about 95% pure. The protocol: Binding studies: The potency of compounds to inhibit the specific binding of [^3H]CGS-19755 (specific activity 50.5 Ci/mmol, New England Nuclear, Boston, MA) to NMDA receptors was performed as described by Ferkany et al., (J. Pharmacology and Experimental Therapeutics, 1989, 250:100-109). Briefly, animals were sacrificed by decapitation, the forebrain removed immediately and the "buffy coat" prepared as described by Enna and Snyder (Enna, S. and Snyder, S.H., Molecular Pharmacology, 1977, 13:422-433). Crude synaptic membranes were stored frozen (-20 °C) until used. On the day of the assay, membranes were thawed to room temperature and homogenized in 20 vol (w/v) of assay buffer. The homogenate was centrifuged (48,000 x g; 10min; 4 °C), the supernatant decanted and the pellet resuspended as before. The procedure was repeated until the tissue had been washed 4 times to remove endogenous inhibitors.
For assay, the final pellet was resuspended in sufficient buffer (Tris HCl, 0.05M, pH 7.1, 23 °C) to yield a tissue concentration of 0.2mg of protein per ml. Two-milliliter portions of the suspension were added in duplicate to tubes containing ligand (final concentration = 4.62 x 10^- ^9 M) and the compound of interest ([…]). After an incubation of 20min (23 °C), the reaction was terminated by centrifugation, the supernatant was decanted and the pellets washed rapidly and superficially with 2 x 2.5ml of ice-cold buffer. Tissue was solubilized in Protosol (0.5 ml, New England Nuclear, Boston, MA) and after the addition of scintillant, radioactivity was determined using standard procedures.
Non specific binding was determined using L-glutamate at a final concentration of 10^-3 M. Routinely, IC50s were determined using 8-12 concentrations of inhibitor.

Data set [2] can be described thus: Rotorod test for motor impairment after i.c.v. administration. Also on record: species or system male CF-1 mice. As to conditions: mouse, in vivo, icv or intrathecal; potency to impair rotorod performance; tested 10 minutes after i.c.v. administration; enriched mixtures, less than about 95% pure. Here is the method:
(§1) Anticonvulsant studies: The potency of the isomers of APCA to inhibit NMDA-induced seizures was evaluated using male CF-1 mice. All drugs were dissolved in isotonic saline and the pH adjusted to neutrality using NaOH. The test compounds were injected intracerebroventricularly (i.c.v.) in a final volume of […]. N-Methyl-D-aspartate (250mg/kg of body weight) was dissolved in saline (1% v/w of body weight) and injected intraperitoneally (i.p.) 15 minutes following the administration of the test agent. […] NMDA-induced seizures were defined as presence of tonic/clonic activity accompanied by hindlimb extension and death. Rotorod: Animals used for seizure studies were evaluated for motor impairment using the rotorod test. Before use all animals were tested for their ability to maintain equilibrium for 60 seconds on a 1-inch knurled bar rotating at a speed of 6 to 7 rpm. Each animal was given three separate trials. Animals performing the task in any of the three trials were used for further study.
Animals were tested for impairment 10 minutes after i.c.v. administration of the test agent and 5 minutes before administration of the seizure-inducing agent. Each animal was tested on a maximum of three trials; completion of any one of the trials was screened as passing.
(In general: In the rotarod test animals must keep their balance on a rotating rod.)

Data set [3] can be described thus: Inhibition of NMDA-induced seizures after i.c.v. administration. Format: in vivo, male CF-1 mice. Conditions: mouse, in vivo, icv or intrathecal; ratio of rotorod TD50 to NMDA-seizure ED50; ICV administration. The protocol:
as §1

In data set [4] the test system is NMDA-induced seizures. The description is as above. Conditions: for ED50: Mus musculus, central, potency to inhibit NMDA-induced seizures, ICV administration 15 minutes before NMDA 250mg/kg i.p., mixtures enriched in the stated isomer, less than about 95% pure. Format: in vivo, male CF-1 mice. The protocol: as §1

The term IC50 denotes the concentration needed to halve the response being measured. A word on the TD50: it is the dose at which the toxic effect under study appears in half of the subjects. The term ED50 denotes the dose that gives a 50% effect, or the effect in half of the subjects. On to `N[C@H](C[C@H]1CCCC[C@H]1CCP(=O)(O)O)C(=O)O` (single isomer, unassigned) [cis isomer A, 2-amino-4,5-(1,2-cyclohexyl)-7-phosphonoheptanoic acid], for which, in data set [1], the IC50 was determined as 270 ± 12 nM. Moreover, the “fold more potent than cis isomer C, the next most potent isomer” value in data set [1] (binding data of Table 2) is listed as “approximately 8 fold”. Further, the TD50 at 10 min in data set [2] was 32 mg/kg. Besides, the selectivity ratio in data set [3] worked out at 30.5. Further, in data set [4], the ED50 amounted to 1.05 mg/kg. Moreover, the “fold more potent than the next most potent isomer” value in data set [4] (in vivo effects of Table 1) was “at least 25 fold”.
In the case of `O=C(O)C1CN(CCCP(=O)(O)O)CCN1` (racemic) [(±) CPP, 4-(3-phosphonopropyl)-2-piperazine carboxylic acid, reference compound], the IC50 in data set [1] worked out at 190 ± 15 nM. The TD50 at 10 min in data set [2] worked out at 10 mg/kg. Moreover, in data set [3], the selectivity ratio is 4.5. Further, the ED50 in data set [4] was found to be 2.2 mg/kg.
As to `O=C(O)[C@H]1C[C@@H](CP(=O)(O)O)CCN1` (relative stereo) [CGS-19755, cis-4-(phosphonomethyl)-2-piperidinecarboxylic acid, reference compound], in data set [2], the TD50 at 10 min amounted to 17 mg/kg. Besides, the selectivity ratio in data set [3] was found to be 6.4. Moreover, in data set [4], the ED50 worked out at 2.64 mg/kg.
